Legend:
RAW264.7 [1] = experiment: Antiinflammatory activity in mouse RAW264.7 cells assessed as inhibition of LPS-induced NO production pretreated for 30 mins before LPS challenge measured 24 hrs after LPS challenge by Griess reaction method; assay type: functional, cell-based
RAW264.7 [2] = experiment: Cytotoxicity against mouse RAW264.7 cells at antiinflammatory IC50 level by MTT assay; assay type: cell-based

Compound	IC50 (RAW264.7 [1]) [µM]	Activity (RAW264.7 [2])
C=C1C(=O)O[C@@H]2C[C@H](C)C(CCC(C)=O)=CC[C@H]12 [TOMENTOSIN]	7.14	Non-toxic
C=C1C(=O)O[C@H]2C[C@@H](C)[C@@H]3CCC(=O)[C@@]3(C)[C@@H](O)[C@H]12 [CARPESIOLIN]	2.18	Non-toxic
C=C1C[C@@H]2OC(=O)[C@@H](C)[C@H]2C[C@@H]2[C@@H]1CC[C@@]2(C)O	19.5	Non-toxic
CC(=O)CCC1=CC[C@@H]2[C@H](C)C(=O)O[C@@H]2C[C@@H]1C	64.9	Non-toxic
C=C1C(=O)O[C@H]2C=C(C)[C@@H]3CC[C@](C)(O)[C@@H]3C[C@H]12 [4-EPI-ISOINUVISCOLIDE]	5.94	Non-toxic
C=C1C(=O)O[C@H]2C[C@@H](C)[C@@H]3CC[C@H](O)[C@@]3(C)C[C@H]12 [PSEUDOGUAIANOLIDE]	9.89	Non-toxic
C=C1C(=O)O[C@@H]2C[C@H](C)C(CCC(C)O)=CC[C@H]12 (some centres not stated)	5.48	Non-toxic
C=C1C(=O)O[C@@H]2C[C@@]3(C)[C@@H](O)C[C@@H](OC(=O)C=C(C)C)C(=C)[C@@H]3C[C@H]12	4.7	Non-toxic
C=C1C(=O)O[C@H]2C=C(C)[C@H]3CC[C@@](C)(O)[C@@H]3[C@@H](O)[C@H]12	0.13	Non-toxic
C=C1C(=O)O[C@@H]2C[C@H](C)C(CCC(C)OC(C)=O)=CC[C@H]12 (some centres not stated)	0.81	Non-toxic
C=C(CCCOC(=O)CCCCCCC/C=C\C/C=C\CCCCC)[C@@H]1CC(C)(C)[C@H]1CCC(C)=O	35.5	Non-toxic
C=C1C(=O)O[C@@H]2C[C@@H](C)[C@@H]3CCC(=O)[C@@]3(C)C[C@H]12	0.4	Non-toxic
C=C1C(=O)O[C@H]2C[C@@H](C)C(CCC(C)O)=CC[C@H]12 (some centres not stated)	0.87	Non-toxic
C=C1C(=O)O[C@H]2C[C@H](C)[C@@H]3CC[C@@]4(C)O[C@@]34C[C@H]12	0.11	Non-toxic
C=C1C(=O)O[C@H]2C[C@@H](C)[C@@H]3CC[C@H](OC(C)=O)[C@@]3(C)[C@@H](O)[C@H]12	2.05	Non-toxic
CC(=O)O[C@H]1[C@H]2[C@H](C[C@@H](C)[C@@H]3CCC(=O)[C@]31C)OC(=O)[C@@H]2C [DIHYDROERGOLIDE]	8.34	Non-toxic
C=C1C[C@H]2OC(=O)C(=C)[C@H]2C[C@@H]2[C@@H]1CC[C@]2(C)O	7.3	Non-toxic

Compound	IC50 (RAW264.7 [1]) [µM]	Activity (RAW264.7 [2])
C[C@@H]1C[C@@H]2OC(=O)[C@H](C)[C@H]2C[C@]2(C)C(=O)CC[C@@H]12	10.8	Non-toxic
C=C1C(=O)O[C@@H]2C[C@@]3(C)CCC[C@H](C)C3=C[C@H]12 [HELENINE]	1.17	Non-toxic
C[C@@H]1C[C@@H]2OC(=O)[C@H](C)[C@H]2[C@H](O)[C@]2(C)C(=O)CC[C@@H]12	20.3	Non-toxic
CC(=O)CCC1=C[C@@H](O)[C@@H]2[C@H](C)C(=O)O[C@@H]2C[C@@H]1C	21.9	Non-toxic
C=C1C(=O)O[C@H]2C[C@H](C)[C@@H]3CC(=O)C(C)=C3C[C@H]12 [XERANTOLIDE]	12.9	Non-toxic
C=C1C[C@H]2OC(=O)C(=C)[C@H]2C[C@@H]2[C@@H]1CC[C@@]2(C)O	3.94	Non-toxic
C=C1C(=O)O[C@H](CC(C)=O)[C@@H]1CC1=C(C)CCC1=O [POSTIA SECOGUAIANOLIDE]	15.8	Non-toxic
C=C1C(=O)O[C@@H]2C[C@@]3(C)[C@@H](O)C[C@@H](OC(=O)C(C)C)C(=C)[C@@H]3C[C@H]12	9.12	Non-toxic
C=C1C(=O)O[C@H]2CC(=C)[C@H]3CC[C@@](C)(O)[C@@H]3C[C@H]12 [INUVISCOLIDE]	9.64	Non-toxic
C=C1C(=O)O[C@@H]2C[C@H](C)[C@]3(CCC(C)O)O[C@@H]3C[C@H]12 (some centres not stated)	18.9	Non-toxic
C=C1C(=O)O[C@H]2C[C@@H](C)[C@@H]3CCC(=O)[C@@]3(C)[C@@H](OC(C)=O)[C@H]12 [ERGOLIDE]	0.07	Non-toxic
C=C1C(=O)O[C@@H]2C[C@@]3(C)[C@@H](O)C[C@@H](O)C(=C)[C@@H]3C[C@H]12 [GRANILIN]	0.11	Non-toxic
N=C(N)NN [PIMAGEDINE]	0.2	–
C=C1C(=O)O[C@H]2CC(=C)[C@H]3CC[C@@](C)(O)[C@@H]3[C@@H](O)[C@H]12	0.29	Non-toxic
C=C1C(=O)O[C@@H]2C[C@@]3(C)O[C@@H]3CC[C@@]3(C)O[C@H]3C[C@@H]12	6.4	Non-toxic
C=C1C(=O)O[C@H]2C[C@@H](C)[C@@H]3CC[C@H](O)[C@@]3(C)[C@@H](OC(C)=O)[C@H]12	0.36	Non-toxic
C=C1C[C@@H]2OC(=O)[C@H](C)[C@H]2C[C@@H]2[C@@H]1CC[C@@]2(C)O	41.2	Non-toxic

Source: ChEMBL document CHEMBL1909625, “Sesquiterpene lactones from Inula falconeri, a plant endemic to the Himalayas, as potential anti-inflammatory agents” (Eur J Med Chem, 2011)
